From patent US20130095493A1, “IDENTIFICATION OF THE GENE NOTCH3 AS A NOVEL BIOMARKER FOR HUMAN METASTATIC MELANOMA” (THE JOHNS HOPKINS UNIVERSITY, priority 2011, published 2013)
Entries after “also recorded” stand apart in the source; their conditions may differ.

Legend:
Assay type in all cases: cell-based, human
[1] = test system: Notch signaling (4XCBF-1 Notch luciferase reporter in GFP-1205Lu co-cultured with RFP-HUVEC); assay: Notch luciferase reporter co-culture (dual-luciferase assay)
Procedure: GFP-1205Lu was transfected using Lipofectamine 2000 with 4XCBF-1 Notch luciferase reporter (kindly provided by Dr. Diane Hayward, Johns Hopkins University) and Renilla control plasmid (2 μg total cDNA/well). Cells were transfected for 4 hr, then harvested by trypsinization and co-cultured with RFP-HUVEC at varying ratios for 24 hr in EGM-2. Cells were washed with PBS, snap-frozen, and stored at −80° C. Co-cultures were lysed using the Dual-Luciferase Reporter Assay System (Promega) and analyzed on a 1450 Microbeta plate reader (Perkin Elmer). The specificity of Notch signaling was verified using the pan-Notch inhibitor DAPT and 0.1% DMSO as a vehicle control.
The transcriptional activity of Notch is mediated by the CBF-1 promoter sequence upstream of target genes. CBF-1 recruits CSL transcriptional repressors which inactivate gene expression in the absence of NICD. […] Thus, by utilizing a four-tandem repeat of CBF-1 to drive luciferase expression during a transient transfection, canonical Notch signaling can be directly quantified by chemiluminescence activity in a target cell population. […]
To quantify Notch signaling within the model system, GFP-1205Lu was transiently transfected with 4XCBF-1 Notch luciferase reporter (PJH23A) and co-cultured with RFP-HUVEC for 24 hours. […]

[2] = test system: RFP-HUVEC networking phenotype in GFP-1205Lu:RFP-HUVEC co-culture; assay: Melanoma-endothelial co-culture networking phenotype; conditions: 10 μM DAPT vs 0.1% DMSO; 1:1 GFP-1205Lu:RFP-HUVEC co-culture
Procedure: For co-culture experiments, various GFP-labeled melanoma cell lines were co-cultured with RFP-HUVEC at a 1:1 ratio to 95% confluency in EGM-2. Melanoma cells grown alone were cultured in EGM-2 to control for medium effects. Cells were co-cultured for 48 hours before sorting by FACS into pure populations. The sorted cell populations were divided and stored at −80° C. for mRNA and protein analysis.
(§1) In previous investigations, we observed RFP-HUVEC communicating in a concerted fashion with metastatic melanoma cells to create a networking phenotype during 48 hrs of co-culture. It was thought that understanding the molecular determinants of this communication could lead to pharmacological targets for the prevention of melanoma-endothelial crosstalk in the clinical setting. To determine whether Notch signaling is involved in mediating the networking phenotype, GFP-1205Lu and RFP-HUVEC were co-cultured in 0.1% DMSO (vehicle) or 10 μM DAPT. These cells were also cultured alone in identical media to determine whether these conditions elicited any aberrant growth not attributable to co-culture.

[3] = test system: GFP-1205Lu or RFP-HUVEC grown alone; assay: Growth of cells cultured alone under DAPT; conditions: 10 μM DAPT vs 0.1% DMSO
Text: as §1

With C[C@H](NC(=O)Cc1cc(F)cc(F)c1)C(=O)N[C@H](C(=O)OC(C)(C)C)c1ccccc1 [DAPT] the “Inhibition of quantified Notch signaling” value ([1]; 10 μM DAPT vs 0.1% DMSO vehicle) was “effectively inhibiting all quantified Notch signaling”, the “Effect on co-culture stimulated Notch signaling (luciferase reporter)” value ([1]; GFP-1205Lu with 4XCBF-1 reporter, RFP-HUVEC co-culture 24 hours, DMSO vehicle had no effect) was “completely abrogated the co-culture stimulated Notch signaling; also recorded: completely abrogated all Notch signaling observed” and the “Effect on RFP-HUVEC networking phenotype in co-culture” value [2] was “drastically affected; also recorded: RFP-HUVEC network disruption”. For the same molecule, the “Effect on growth of GFP-1205Lu or RFP-HUVEC grown alone” value [3] was “little effect; also recorded: no discernable difference”.
